Data published in patent US9744250B2, “Chemical model of a neurodegenerative disease, method for preparation and uses of same” (priority 2012, dated 2017).

How the values were obtained:
mitochondrial complex I = experiment: Spectrophotometric analysis of complex I activity (NADH oxidation); assay type: biochemical, rat
Protocol: (§1) The animal was then decapitated in order to collect from the brain either the cortex or the striatum, which were quickly placed in a Potter Elvejhem® containing 6 ml of extraction buffer at 4° C. (250 mM sucrose, 40 mM KCl, 2 mM EGTA, lmg/ml BSA, 20 mM Tris, pH=7.2). This mixture was homogenized to break open the cells and release the mitochondria and then centrifuged at 2000 g for 8 minutes to remove the larger membrane debris and the nuclei from the pellet. The supernatant was then recovered and centrifuged at 13,000 g for 11 minutes. The supernatant was discarded while the pellet containing a mitochondria-rich fraction was resuspended in 500 μl of respiration buffer at 4° C. (300 mM D-mannitol, 10 mM KCl, 10 mM KH2PO4, 5 mM MgCl2, pH=7.2). […]
The kinetics of the oxidation reaction of NADH into NAD+ at 340 nm at 37° C. were continuously monitored by spectrophotometry using a JASCO V-530 spectrophotometer or a TECAN 1000M Infinite plate reader, set to a wavelength of 340 nm for 3 min. The amount of mitochondria extract to obtain the maximum activity introduced into the reaction volume was 100 μg with the spectrophotometer and 10 μg with the reader. […] The slope of the kinetics was then measured. […] The inhibition percentage was then calculated.

caspase-8 = experiment: Caspase-8 activity (Ac-IETD-AFC cleavage) in SH-SY5Y cells; assay type: cell-based, human; settings: 1 mM, 6 h (+24 h without MPP+)
Protocol: Measurement of the activities of the various caspases is based on the ability of the caspases to cleave specific fluorescent substrates: Ac-DEVD-AFC for caspase-3, Ac-IETD-AFC for caspase-8, or Ac-LEHD-AFC for caspase-9. SH-SY5Y neuronal cells were incubated in 48-well plates with either furosemide pyridinium (1 mM) for 96 h or with MPP+ (1 mM) for 6 h, then 24 h of incubation with no MPP+. After incubation, the cells were trypsinized, then rinsed with PBS and counted, then harvested in 100 μl of buffer containing 30 mM HEPES, 0.3 mM EDTA, 100 mM NaCl, 0.15% Triton X-100, and 10 mM DTT. The cell extract was then incubated for 1 hour at 37° C. with the specific substrate (100 μM) in a 96-well plate. Fluorescence was measured at λex400 nm and λem505 nm in a fluorescence detection plate reader (TECAN Infinite M1000) (Yue et al., supra). The results were expressed as percentages relative to the measured activity of cells cultured under the same conditions and not subjected to any treatment.

[1] = system: mitochondria isolated from rat cerebral cortex; experiment: Respiratory control (oxygen consumption, malate/pyruvate) of isolated cerebral cortex mitochondria; assay type: biochemical; settings: increasing concentration
Protocol: as §1
Added to the polarography chamber (Hansatech) were 30 μl of mitochondria solution (0.2 mg), 460 μL of respiration buffer, 5 μl of test compound solution (meaning MPP+ or furosemide pyridinium) (or its solubilizing solvent). […] The effect of the compound on respiratory control was evaluated (ratio of stage 3 to 4), which corresponds to the coupling of the respiratory chain, or in other words the ATP synthesis at complex V and the oxygen consumption due to complexes I to IV. The results are expressed as percentages of the value measured for mitochondria not treated with the test compound (but treated with the solubilizing solvent).

α-synuclein = experiment: Cellular accumulation of α-synuclein (Western blot) in SH-SY5Y cells; assay type: cell-based, human; settings: 1 mM, 6 h incubation (+24 h without MPP+)
Protocol: Cells were incubated under the same conditions as above with furosemide pyridinium (1 mM, incubation: 96 h) and MPP+ (1 mM, incubation: 6 h, wait 24 h). After incubation, the cells were trypsinized, rinsed with PBS, counted, then harvested in 100 μl of buffer containing: 250 mM sucrose; 70 mM KCl; 137 mm NaCl; 4.3 mm NaH2PO4; 1.4 mm KH2PO4, pH 7.2; and […] digitonin. Incubation at 4° C. was then conducted for 5 minutes before centrifuging at 13,000 g for 5 minutes to separate the cytosolic and lysosomal fraction from the mitochondrial fraction. Deposits of cytosolic fraction in the Western blot were adjusted according to the number of cells. The protein samples were diluted in 4× Laemmli and were then heated for 3 minutes at 95° C. to denature. They were loaded into the wells of gel. In addition to the samples, a molecular weight marker (Fermentas) was deposited in the gel. […] The transfer was carried out on PVDF membrane. The transfer was done in transfer buffer (25 mM Tris, 192 mM glycine, 10% methanol) overnight at 4° C. and 30V or for 2 hours at 4° C. and 80V. […] Then the membranes were immunolabeled for 1.5 h at room temperature with a primary antibody diluted in 1×PBS/0.2% Tween/3% milk. […] The primary antibody used was anti-α-synuclein, 1:500 (visualized with an anti-rabbit secondary antibody, 1:10,000).

[2] = system: respiratory chain complexes II-V of rat cerebral cortex mitochondria; experiment: Respiratory control after induction of complex II by succinate and inhibition of complex I by rotenone; assay type: biochemical; settings: 1 mM, succinate
Protocol: as §1
Added to the polarography chamber (Hansatech) were 30 μl of mitochondria solution (0.2 mg), 460 μL of respiration buffer, 5 μl of test compound solution (meaning MPP+ or furosemide pyridinium) (or its solubilizing solvent). […] The effect of the compound on respiratory control was evaluated (ratio of stage 3 to 4), which corresponds to the coupling of the respiratory chain, or in other words the ATP synthesis at complex V and the oxygen consumption due to complexes I to IV. The results are expressed as percentages of the value measured for mitochondria not treated with the test compound (but treated with the solubilizing solvent). […]

SH-SY5Y neuronal cells = experiment: Cell viability test in MTT; assay type: cell-based, human
Protocol: Cells from SH-SY5Y human neuroblastomas were cultured in a DMEM medium containing 4.5 g·L^−1 glucose, 10% fetal calf serum, and 1% penicillin/streptomycin, and placed in an incubator at 37° C. with 7% CO2.
In the various experiments, the SH-SY5Y cells were seeded at a density of 4×10^4 cells/mL. 24 h after seeding, the cells were exposed to the various test compounds at 37° C. for 24 h, 48 h, 72 h, or 96 h.
This test consisted of rapidly measuring cellular metabolic activity in the presence of the study compound at different concentrations, in order to conduct a dose-response study. To do this, the tetrazolium salt MTT, 3-(4,5-dimethylthiazol-2-yl)-2,5-diphenyltetrazolium bromide (Amoroso et al., Biochim Biophys Acta, 1999, 1452(2):151-60), was placed in contact with the cells. MTT is reduced to formazan by living cells that have the capacity to metabolize it, unlike dead cells. To conduct this test, SH-SY5Y neuronal cells in 48-well plates were incubated for 24 h, 48 h, 72 h, and 96 h, with furosemide pyridinium at concentrations ranging from 0 to 1000 μM. Then MTT (0.5 mg/ml final) was added to each well and incubated at 37° C. for 2 h. At the end of incubation, after carefully removing the medium, DMSO was added (200 μL) to dissolve the cell membranes and the formazan crystals formed by the living cells. The toxicity of the molecule was evaluated by determining the amount of reduced MTT, doing so by measuring the absorbance at 550 nm as this value is proportional to the number of living cells. The results were expressed as a function of the values obtained for cells treated only with the solvent used to dissolve the compound of interest. To compare the toxicity of furosemide pyridinium to that of MPP+, the cells were incubated in the presence of MPP+ (0 to 1000 μM) for 6 h. The culture medium was replaced and the cells were incubated at 37° C. for an additional 24 h (no MPP+). Cell survival was measured at the end of these 24 hours of incubation as described above. When evaluating the effect of different concentrations of α-tocopherol (vitamin E), a membrane antioxidant, the cells were pretreated for 24 h with this antioxidant before being exposed to furosemide pyridinium at a concentration of 0.5 mM under the same experimental conditions as above.

With `Clc1ccc(-[n+]2ccccc2)cc1.[Cl-]` [1-(4-chlorophenyl) pyridinium, 1-(4-chlorophenyl) pyridinium chloride] the “inhibition of complex I activity” value (mitochondrial complex I; concentration not given) was 95%.

`Oc1ccc[n+](-c2ccc(Cl)cc2)c1.[Cl-]` [1-(4-chlorophenyl)-3-hydroxypyridinium, 1-(4-chlorophenyl)-3-hydroxypyridinium chloride] was tested, and the “inhibition of complex I activity” value (mitochondrial complex I; 0.2 mM) was “complete inhibition”.

With `C[n+]1ccc(-c2ccccc2)cc1` [MPP+, reference compound] the “change in caspase-8 activity” value (caspase-8) was “did not induce significant changes”, the “respiratory control of cerebral cortex mitochondria induced by malate/pyruvate” value [1] was “diminished” and the “increase in the total amount of α-synuclein compared to control cells” value (α-synuclein) was 319%. The “respiratory control of cortex mitochondria after induction by complex II” value [2] was “not modified”, the cell death (SH-SY5Y neuronal cells; 1 mM, 6 h incubation (+24 h without MPP+)) was “massive cell death” and the EC50 (SH-SY5Y neuronal cells; 6 h incubation (+24 h without MPP+), read-out: EC50 (cell survival)) was 386 ± 19.2 µM.

In the case of `Cc1c(C)c2c(c(C)c1O)CC[C@@](C)(CCC[C@H](C)CCC[C@H](C)CCCC(C)C)O2` [α-tocopherol], the “concentration at which the protective effect becomes visible” value (SH-SY5Y neuronal cells; 24 h pretreatment, then 0.5 mM furosemide pyridinium) is reported as 0.1 mg/mL, the “cell survival rate after 24 h pretreatment before 0.5 mM furosemide pyridinium” value (SH-SY5Y neuronal cells; 24 h pretreatment, then 0.5 mM furosemide pyridinium 96 h) is reported as “increased the cell survival rate in a dose-dependent manner” and the “increase of cell survival, α-tocopherol alone” value (SH-SY5Y neuronal cells; pretreatment 1 μg/mL, without furosemide pyridinium) is reported as 20%. For the same compound, the “change of cell survival, α-tocopherol alone” value (SH-SY5Y neuronal cells; pretreatment 0.01 and 0.1 μg/mL, without furosemide pyridinium) was “did not change cell survival”.
